Tests used:
Test in all cases: relative viability (nuclei count vs DMSO), 5 days (fraction); higher = more cells survive
[1] = compound: O=c1[nH]cc(F)c(=O)[nH]1 [5-Fluorouracil] + CC(=O)c1c(C)c2cnc(Nc3ccc(N4CCNCC4)cn3)nc2n(C2CCCC2)c1=O [Palbociclib] (partner 0.5 µM)
Method in brief: (§1)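 Values are medians from duplicate plates. Each reflects relative viability, defined as the nuclei count of treated wells over that of vehicle wells. Lung cancer cell lines in 1536-well plates were pin-tool dosed one day after seeding with one drug alone or with a fixed anchor-drug dose plus five library-drug doses (not always all listed) in √10 steps, then fixed, stained and imaged at 4× after 5 days.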

[2] = compound: O=c1[nH]cc(F)c(=O)[nH]1 [5-Fluorouracil] + Nc1nc2[nH]cc(CCc3ccc(C(=O)N[C@@H](CCC(=O)O)C(=O)O)cc3)c2c(=O)[nH]1 [Pemetrexed] (partner 0.2 µM)
Method in brief: as §1

[3] = compound: CN[C@@H]1C[C@H]2O[C@@](C)([C@@H]1OC)n1c3ccccc3c3c4c(c5c6ccccc6n2c5c31)C(=O)NC4 [Staurosporine] + C[C@]1(O)C[C@@H](c2nc(-c3ccc4ccc(-c5ccccc5)nc4c3)c3c(N)nccn32)C1 [Linsitinib] (partner 1 µM)
Method in brief: as §1

[4] = compound: CN[C@@H]1C[C@H]2O[C@@](C)([C@@H]1OC)n1c3ccccc3c3c4c(c5c6ccccc6n2c5c31)C(=O)NC4 [Staurosporine] + CS(=O)(=O)N1CCN(Cc2cc3nc(-c4cccc5[nH]ncc45)nc(N4CCOCC4)c3s2)CC1 [Pictilisib] (partner 1 µM)
Method in brief: as §1

Row | Cell Line | relative viability ([1]; first compound 0.02 µM) | relative viability ([1]; first compound 0.2 µM) | relative viability ([1]; first compound 0.6325 µM) | relative viability ([1]; first compound 2 µM) | relative viability ([2]; first compound 0.02 µM) | relative viability ([2]; first compound 0.2 µM) | relative viability ([2]; first compound 0.6325 µM) | relative viability ([2]; first compound 2 µM) | relative viability ([3]; first compound 0.005 µM) | relative viability ([3]; first compound 0.01581 µM) | relative viability ([3]; first compound 0.05 µM) | relative viability ([3]; first compound 0.1581 µM) | relative viability ([3]; first compound 0.5 µM) | relative viability ([4]; first compound 0.005 µM) | relative viability ([4]; first compound 0.01581 µM) | relative viability ([4]; first compound 0.05 µM) | relative viability ([4]; first compound 0.1581 µM) | relative viability ([4]; first compound 0.5 µM)
1 | HCC-78 | 0.467 | 0.529 | 0.496 | 0.451 | 0.924 | 0.866 | 0.858 | 0.915 | 0.613 | 0.457 | 0.363 | 0.295 | 0.268 | 0.212 | 0.175 | 0.178 | 0.223 | 0.206
2 | NCI-H1395 | 0.538 | 0.692 | 0.641 | 0.609 | 0.743 | 0.994 | 0.902 | 0.893 | 0.947 | 0.427 | 0.381 | 0.377 | 0.289 | 0.535 | 0.315 | 0.475 | 0.366 | 0.394
3 | NCI-H2228 | 0.79 | 0.733 | 0.509 | 0.356 | 0.3 | 0.334 | 0.39 | 0.367 | 0.608 | 0.483 | 0.141 | 0.183 | 0.113 | 0.187 | 0.139 | 0.325 | 0.116 | 0.0619
4 | H3255 | 0.291 | 0.317 | 0.305 | 0.296 | 0.557 | 0.6 | 0.557 | 0.449 | 0.814 | 0.549 | 0.303 | 0.226 | 0.116 | 0.325 | 0.238 | 0.145 | 0.135 | 0.0752
5 | HCC-15 | 0.499 | 0.744 | 0.52 | 0.302 | 0.219 | 0.217 | 0.21 | 0.218 | 0.921 | – | 0.656 | 0.444 | 0.276 | 0.718 | – | 0.566 | 0.216 | 0.113
6 | NCI-H838 | 0.196 | 0.223 | 0.19 | 0.174 | 0.261 | 0.253 | 0.257 | 0.249 | 0.248 | 0.153 | 0.18 | 0.164 | 0.099 | 0.19 | 0.151 | 0.172 | 0.144 | 0.126
7 | NCI-H2023 | 0.397 | 0.155 | 0.0836 | 0.102 | 0.212 | 0.129 | 0.126 | 0.115 | 0.419 | 0.17 | 0.197 | 0.122 | 0.0751 | 0.134 | 0.106 | 0.11 | 0.0886 | 0.0609
8 | HCC-44 | 0.971 | 0.929 | 0.823 | 0.619 | 0.641 | 0.625 | 0.569 | 0.471 | 0.328 | 0.194 | 0.101 | 0.111 | 0.0981 | 0.147 | 0.152 | 0.13 | 0.133 | 0.131
9 | COR-L23 | 0.288 | 0.315 | 0.206 | 0.144 | 0.194 | 0.195 | 0.194 | 0.185 | 0.534 | 0.27 | 0.134 | 0.0552 | 0.041 | 0.32 | 0.148 | 0.127 | 0.0645 | 0.0442
10 | EMC-BAC-2 | 0.52 | 0.532 | 0.501 | 0.518 | 0.47 | 0.479 | 0.419 | 0.484 | 0.457 | 0.394 | 0.122 | 0.152 | 0.133 | 0.29 | 0.129 | 0.141 | 0.195 | 0.176
11 | LCLC-103H | 0.476 | 0.472 | 0.471 | 0.471 | 0.481 | 0.413 | 0.464 | 0.384 | 1.25 | 0.717 | 0.352 | 0.206 | 0.212 | 0.495 | 0.211 | 0.274 | 0.193 | 0.158
12 | LK-2 | 0.568 | 0.618 | 0.155 | 0.257 | 0.294 | 0.35 | 0.264 | 0.201 | 0.698 | 0.506 | 0.753 | 0.473 | 0.154 | 0.789 | 0.812 | 0.466 | 0.199 | 0.0791
13 | NCI-H460 | 0.236 | 0.167 | 0.046 | 0.045 | 0.0627 | 0.0623 | 0.0575 | 0.0952 | 0.406 | 0.169 | 0.0258 | 0.0051 | 0.0055 | 0.316 | – | 0.228 | 0.0535 | 0.0424
14 | NCI-H3122 | 0.216 | 0.174 | 0.175 | 0.174 | 0.197 | 0.181 | 0.167 | 0.164 | 1.11 | 0.561 | 0.874 | 0.544 | 0.247 | 0.668 | 0.306 | 0.566 | 0.441 | 0.118
15 | NCI-H2126 | 0.348 | 0.29 | 0.299 | 0.274 | 0.647 | 0.435 | 0.38 | 0.304 | 0.797 | 0.553 | 0.461 | 0.376 | 0.366 | 0.496 | 0.309 | 0.342 | 0.278 | 0.286
16 | LOU-NH91 | 0.545 | 0.536 | 0.541 | 0.399 | 0.359 | 0.342 | 0.317 | 0.309 | 0.979 | 0.744 | 0.63 | 0.365 | 0.274 | 0.521 | 0.38 | 0.338 | 0.277 | 0.279
17 | NCI-H1651 | 0.512 | 0.467 | 0.283 | 0.272 | 0.502 | 0.457 | 0.3 | 0.305 | 0.827 | 0.587 | 0.331 | 0.122 | 0.0924 | 0.438 | 0.334 | 0.239 | 0.097 | 0.089
18 | NCI-H520 | 0.177 | 0.271 | 0.218 | 0.167 | 0.625 | 0.742 | 0.541 | 0.41 | 1.05 | 0.824 | 0.604 | 0.213 | 0.128 | 0.484 | 0.206 | 0.39 | 0.178 | 0.159
